Assay: Measurement of log P values by HPLC on reversed phase columns (methods [a] pH 2.3, [b] pH 2.7, [c] pH 7.8)
Assay type: physicochemical
Conditions: HPLC on reversed phase column, method [b], pH 2.7
Description: Measurement of log P-Values:
Measurement of log P Values was Performed According EEC Directive 79/831 Annex V.A8 by HPLC (High Performance Liquid
Chromatography) on reversed phase columns with the following methods: ^[a] Measurement was done at pH 2.3 with 0.1% phosphoric acid and acetonitrile as eluent with a linear gradient from 10% acetonitrile to 95% acetonitrile. ^[b] measurement of LC-MS was done at pH 2.7 with 0.1% formic acid in water and with acetonitrile (contains 0.1% formic acid) as eluent with a linear gradient from 10% acetonitrile to 95% acetonitrile. ^[c] Measurement with LC-MS was done at pH 7.8 with 0.001 molar ammonium hydrogen carbonate solution in water as eluent with a linear gradient from 10% acetonitrile to 95% acetonitrile.
Calibration was done with linear alkan-2-ones (with 3 to 16 carbon atoms) with known log P-values (measurement of log P values using retention times with linear interpolation between successive alkanones). Lambda-max-values were determined using UV-spectra from 200 nm to 400 nm and the peak values of the chromatographic signals.

| logP | SMILES |
| --- | --- |
| 3.75^[b] | O=C(N[C@@H]1CC[C@H]1c1ccc(Cl)cc1C(F)(F)F)c1c(F)cccc1F (relative stereo) [Example 701] |
| 3.52^[b] | O=C(N[C@@H]1CC[C@@H]1c1ccc(Br)cc1C(F)(F)F)c1cccnc1C(F)(F)F (relative stereo) [Example 657] |
| 3.43^[b] | O=C(N[C@@H]1CC[C@H]1c1ccc(Cl)cc1Cl)c1nccnc1Cl (relative stereo) [Example 675] |
| 3.30^[b] | O=C(N[C@@H]1CC[C@H]1c1cccc(F)c1C(F)(F)F)c1ncccc1Cl (relative stereo) [Example 616] |
| 4.05^[b] | O=C(N[C@@H]1CC[C@@H]1c1ccc(Cl)cc1C(F)(F)F)c1cccc(Cl)c1 (relative stereo) [Example 709] |
| 3.84^[b] | O=C(N[C@@H]1CC[C@H]1c1ccc(Cl)cc1C(F)(F)F)c1ncccc1Cl (relative stereo) [Example 698] |
| 4.51^[b] | O=C(N[C@@H]1CC[C@H]1c1ccc(Cl)cc1Cl)c1sccc1I (relative stereo) [Example 670] |
| 2.50^[b] | O=C(N[C@@H]1CC[C@@H]1c1ccc(Cl)cc1C(F)(F)F)c1cccnc1 (relative stereo) [Example 714] |
| 3.34^[b] | O=C(NC1CCC1c1ccccc1C(F)(F)F)c1ncccc1Br (stereo not shown) [Example 691] |
| 3.10^[b] | O=C(N[C@@H]1CC[C@H]1c1cccc(F)c1C(F)(F)F)c1nccnc1Cl (relative stereo) [Example 646] |

Same assay, conditions: HPLC on reversed phase column, method [c], pH 7.8

| logP | SMILES |
| --- | --- |
| 3.42^[c]; | O=C(N[C@@H]1CC[C@@H]1c1ccc(Br)cc1C(F)(F)F)c1cccnc1C(F)(F)F (relative stereo) [Example 657] |
| 3.27^[c]; | O=C(NC1CCC1c1ccccc1C(F)(F)F)c1ncccc1Br (stereo not shown) [Example 691] |

Same assay, conditions: HPLC on reversed phase columns, method [b], pH 2.7

| SMILES | logP |
| --- | --- |
| Cc1ncncc1C(=O)N[C@@H]1CCC[C@@H]1c1ccc(F)c(F)c1 (relative stereo) [Example 65] | 2.15^[b] |
| Cn1cc(C(=O)NC2CC2c2ccc(Br)cc2)c(C(F)(F)F)n1 (stereo not shown) [Example 25] | 3.23^[b] |
| COc1cscc1C(=O)N[C@@H]1CCC[C@@H]1c1ccc(F)c(F)c1 (relative stereo) [Example 78] | 3.29^[b] |
| Cc1nn(C)cc1C(=O)NC1CC1c1ccc(F)cc1 (stereo not shown) [Example 16] | 2.13^[b] |
| O=C(NC1CC1c1ccc(Cl)cc1)c1ccc(Cl)nc1 (stereo not shown) [Example 31] | 3.53^[b] |
| O=C(N[C@@H]1CCC[C@@H]1c1ccc(F)c(F)c1)c1ccccc1F (relative stereo) [Example 66] | 3.33^[b] |
| O=C(NC1CC1c1ccccc1Cl)c1ccccc1Br (stereo not shown) [Example 48] | 3.19^[b] |
| Cc1nc(Br)sc1C(=O)N[C@@H]1CCC[C@@H]1c1ccc(F)c(F)c1 (relative stereo) [Example 123] | 3.46^[b] |
| COc1nn(C)cc1C(=O)N[C@@H]1C[C@H]1c1ccccc1 (relative stereo) [Example 41] | 2.03^[b] |
| Cc1nnsc1C(=O)N[C@@H]1CCC[C@H]1c1ccc(F)c(F)c1 (relative stereo) [Example 109] | 2.92^[b] |
| O=C(NC1CC1c1ccccc1)c1ccccc1C(F)(F)F (stereo not shown) [Example 40] | 2.79^[b] |
| Cc1oncc1C(=O)N[C@@H]1CCC[C@H]1c1ccc(F)c(F)c1 (relative stereo) [Example 102] | 2.82^[b] |

Now from value to molecule:

| logP | SMILES |
| --- | --- |
| 4.03^[b] | Cc1nc(C(F)(F)F)c(C(=O)NC2CCC2c2ccc(Cl)cc2C(F)(F)F)s1 (stereo not shown) [Example 730] |
| 3.41^[b] | Cn1cc(C(=O)NC2CCC2c2ccc(Cl)cc2C(F)(F)F)c(C(F)F)n1 (stereo not shown) [Example 718] |
| 3.17^[b] | Cn1cc(C(=O)NC2CCC2c2ccc(Cl)cc2C(F)(F)F)c(C(F)F)n1 (stereo not shown) [Example 719] |
| 2.79^[b] | O=C(NC1CCC1c1c(Cl)cccc1Cl)c1cccnc1Cl (stereo not shown) [Example 725] |

Same assay, conditions: HPLC reversed phase, method [b] (pH 2.7)

| SMILES | logP |
| --- | --- |
| O=C(N[C@@H]1CCC[C@@H]1c1ccccc1F)c1ccccn1 (relative stereo) [Example 339] | 1.86^[b] |
| Cc1nc(C)c(C(=O)NC2CCCC2c2ccc(Cl)cc2)s1 (stereo not shown) [Example 284] | 3.11^[b] |
| O=C(NC1CCCC1c1ccccc1Cl)c1ccccc1Cl (stereo not shown) [Example 294] | 3.42^[b] |
| O=C(NC1CCCC1c1ccccc1C(F)(F)F)c1cccnc1Cl (stereo not shown) [Example 301] | 2.90^[b] |
| O=C(NC1CC1c1ccc(Cl)cc1)c1ccsc1I (stereo not shown) [Compound 460] | 2.94^[b] |
| O=C(NC1CCCC1c1ccc(Cl)cc1)c1ccccc1C(F)(F)F (stereo not shown) [Example 279] | 3.64^[b] |
| O=C(N[C@@H]1CC[C@@H]1c1c(F)cccc1F)c1ncccc1Cl (relative stereo) [Compound 438] | 2.73^[b] |
| O=C(NC1CCCCC1c1ccccc1Br)c1ccccc1C(F)(F)F (stereo not shown) [Example 407] | 4.10^[b] |
| O=C(N[C@@H]1CC[C@H]1c1ccc(Cl)cc1Cl)c1ccc(Cl)cc1Cl (relative stereo) [Example 265] | 4.48^[b] |
| O=C(NC1CCCCC1c1c(F)cccc1F)c1ccccc1Cl (stereo not shown) [Example 396] | 3.68^[b] |
| O=C(NC1CCCC1c1ccccc1Br)c1ccccc1I (stereo not shown) [Example 357] | 3.67^[b] |
| O=C(N[C@@H]1CCC[C@@H]1c1ccc(C(F)(F)F)cc1)c1ccccc1C(F)(F)F (relative stereo) [Example 302] | 3.83^[b] |

Results, then the molecule that gave them:

| logP | SMILES |
| --- | --- |
| 4.02^[b] | O=C(NC1CCC1c1ccc(F)cc1C(F)(F)F)c1cccc(Cl)c1 (stereo not shown) [Example 477] |
| 2.83^[b] | O=C(NC1CCC1c1c(F)cccc1F)c1c(F)cccc1F (stereo not shown) [Example 439] |
| 3.76^[b] | O=C(NC1CCCCC1c1ccc(Cl)cc1Cl)c1cccnc1Cl (stereo not shown) [Example 408] |
| 3.40^[b] | Cc1nc(C(F)(F)F)c(C(=O)N[C@@H]2CC[C@@H]2c2cc(F)ccc2C(F)(F)F)s1 (relative stereo) [Example 569] |
| 2.93^[b] | O=C(N[C@@H]1CC[C@H]1c1ccc(F)cc1C(F)(F)F)c1cccnc1Cl (relative stereo) [Example 524] |
| 2.79^[b] | O=C(NC1CC1c1ccccc1C(F)(F)F)c1cccnc1C(F)(F)F (stereo not shown) [Example 500] |
| 3.94^[b] | O=C(NC1CCCCCC1c1ccccc1C(F)(F)F)c1cccnc1C(F)(F)F (stereo not shown) [Example 418] |
| 4.59^[b] | O=C(NC1CCCCCC1c1ccccc1C(F)(F)F)c1ccccc1I (stereo not shown) [Example 419] |
| 3.63^[b] | O=C(N[C@@H]1CC[C@H]1c1cccc(F)c1C(F)(F)F)c1ccccc1C(F)(F)F (relative stereo) [Example 588] |
| 3.10^[b] | O=C(N[C@@H]1CC[C@H]1c1ccc(F)cc1C(F)(F)F)c1ccccc1[N+](=O)[O-] (relative stereo) [Example 521] |
| 3.85^[b] | O=C(N[C@@H]1CC[C@@H]1c1ccc(F)cc1C(F)(F)F)c1ccc(Cl)cc1Cl (relative stereo) [Example 506] |
| 3.19^[b] | Cc1nn(C)cc1C(=O)NC1CCCCC1c1ccc(Cl)cc1Cl (stereo not shown) [Example 416] |
| 4.49^[b] | O=C(NC1CCCCC1c1ccc(Cl)cc1Cl)c1ccccc1C(F)(F)F (stereo not shown) [Example 412] |

Same assay, conditions: HPLC reversed phase, method [c] pH 7.8

| logP | SMILES |
| --- | --- |
| 1.95^[c]; | O=C(N[C@@H]1CCC[C@@H]1c1ccccc1F)c1ccccn1 (relative stereo) [Example 339] |
| 3.79^[c]; | O=C(N[C@@H]1CCC[C@@H]1c1ccc(C(F)(F)F)cc1)c1ccccc1C(F)(F)F (relative stereo) [Example 302] |

| SMILES | logP |
| --- | --- |
| O=C(NC1CC1c1ccc(Cl)cc1)c1ccsc1I (stereo not shown) [Compound 460] | 2.93^[c]; |

Same assay, conditions: HPLC-MS, method letter not given

| log P | SMILES |
| --- | --- |
| 3.26 | Cn1cc(C(=O)NC2CCC2c2ccc(Cl)cc2Cl)c(C(F)F)n1 (single isomer, unassigned) [Preparation Example 2 trans-Isomer, trans-N-[2-(2,4-dichlorophenyl)cyclobutyl]-3-(difluoromethyl)-1-methyl-1H-pyrazole-4-carboxamide] |

Same assay, conditions: method [b], HPLC reversed phase, pH 2.7

| logP | SMILES |
| --- | --- |
| 4.51^[b] | Cc1nc(C(F)F)c(C(=O)N(C2CC2)C2CCCC2c2ccccc2Cl)s1 (stereo not shown) [Example 174] |
| 3.29^[b] | Cn1nc(C(F)F)c(C(=O)NC2CCCCC2c2ccccc2)c1F (stereo not shown) [Example 182] |
| 3.56^[b] | O=C(NC1CC1c1ccc(Cl)cc1)c1sccc1I (stereo not shown) [Example 202] |
| 3.83^[b] | CCc1nn(C)c(F)c1C(=O)N(C1CC1)C1CCCCC1c1ccccc1 (stereo not shown) [Example 144] |
| 3.29^[b] | O=C(NC1CC1c1ccccc1C(F)(F)F)c1ccccc1C(F)(F)F (stereo not shown) [Example 233] |
| 5.08^[b] | CCc1nn(C)c(F)c1C(=O)N(C1CC1)C1CCCCC1c1ccc(Cl)cc1Cl (stereo not shown) [Example 161] |
| 4.31^[b] | Cn1nc(C(F)F)c(C(=O)N(C2CC2)C2CCCC2c2ccccc2Cl)c1F (stereo not shown) [Example 167] |
| 4.18^[b] | Cn1nc(C(F)F)c(C(=O)N(C2CC2)C2CCCCC2(C)c2ccccc2)c1F (stereo not shown) [Example 180] |
| 3.30^[b] | O=C(NC1CCC1c1ccccc1Cl)c1ccccc1Cl (stereo not shown) [Example 239] |
| 3.27^[b] | CN(C(=O)c1c(C(F)F)nn(C)c1F)C1CCCCC1c1ccccc1 (stereo not shown) [Example 196] |
| 3.58^[b] | O=C(NC1CC1c1ccc(Cl)cc1Cl)c1ccccc1Br (stereo not shown) [Example 207] |

Same assay, conditions: method [c], HPLC reversed phase, pH 7.8

| logP | SMILES |
| --- | --- |
| 3.50^[c]; | O=C(NC1CC1c1ccc(Cl)cc1)c1sccc1I (stereo not shown) [Example 202] |
| 3.52^[c]; | O=C(NC1CC1c1ccc(Cl)cc1Cl)c1ccccc1Br (stereo not shown) [Example 207] |

Same assay, conditions: reversed phase HPLC columns, HPLC-MS, method letter not given; read-out: log P

| chromatographic logP | SMILES |
| --- | --- |
| 2.95 | Cn1cc(C(=O)NC2CCC2c2ccc(Cl)cc2Cl)c(C(F)F)n1 (single isomer, unassigned) [Preparation Example 2 cis-Isomer, cis-N-[2-(2,4-dichlorophenyl)cyclobutyl]-3-(difluoromethyl)-1-methyl-1H-pyrazole-4-carboxamide] |

Same assay, conditions: reversed phase HPLC columns, pH 2.7, HPLC on reversed phase columns, method [b] (pH 2.7); read-out: logP

| chromatographic logP | SMILES |
| --- | --- |
| 3.32 | O=C(N[C@@H]1CC[C@@H]1c1c(Cl)cccc1Cl)c1ncccc1Cl [Example 743] |

Same assay, conditions: reversed phase HPLC columns, pH 2.7, HPLC reversed phase, method [b] (pH 2.7); read-out: logP

| chromatographic logP | SMILES |
| --- | --- |
| 2.83 | O=C(NC1CCCC1c1ccc(Cl)cc1)c1cccnc1C(F)(F)F (stereo not shown) [Example 283] |

From patent publication US20160075653A1, “NEMATICIDAL N-(PHENYLCYCLOALKYL)CARBOXAMIDES AND N-(PHENYLCYCLOALKYL)THIOCARBOXAMIDES” (BAYER CROPSCIENCE AKTIENGESELLSCHAFT, priority 2013, published 2016)
